We go through three compounds from US9084758B2, “Antiviral compositions comprising ethanol extract of Tetracera scandens and use thereof” (The Catholic University of Korea Industry-Academic …, priority 2012, dated 2015).

Structures are written as SMILES.

Assay [1] concerns the target HIV reverse transcriptase (Human immunodeficiency virus type 1 group M subtype B, UniProt P04585). Briefly: Inhibition of reverse transcriptase activity, Enzchek Reverse Transcriptase assay kit. The following applies: positive controls, FIG. 3. It is filed as biochemical.
For assay [2], the system named is human immunodeficiency virus (HIV). Put plainly: Antiviral activity in HIV-infected (Nef substituted with EGFP) MT-4 cells: GFP fluorescence, HIV-1 p24 Antigen Capture Assay. The class given is cell-based. The following applies: 1 nM, 3 days. How it is done: Thereafter, the cultured cells were centrifuged at 6,000 rpm for 3 minutes to obtain a cell pallet. Then, fluorescence intensity of a green fluorescence protein (GFP) secreted from the obtained cells was measured, a level of viral infection was confirmed using an HIV-1 p24 Antigen Capture Assay kit (Advanced BioScience Laboratories), and cell viability was determined using an MTT assay. 0.5% DMSO and 1 nM 3′-azido-3′-deoxy-thyminine (AZT) were used as the negative and positive controls, respectively.

For `Cc1cn([C@H]2C[C@H](N=[N+]=[N-])[C@@H](CO[P@](=O)(O)O[P@](=O)(O)OP(=O)(O)O)O2)c(=O)[nH]c1=O` [AZTTP], the “inhibition of reverse transcriptase activities (in words)” value in assay [1] is “increasingly expressed according to a concentration”.
On the same count and under the same terms, under `Cc1cc(C#N)cc(C)c1Oc1nc(Nc2ccc(C#N)cc2)nc(N)c1Br` [Etravirine] stands “increasingly expressed according to a concentration”.
The compound `Cc1cn([C@H]2C[C@H](N=[N+]=[N-])[C@@H](CO)O2)c(=O)[nH]c1=O` [AZT, 3′-azido-3′-deoxy-thyminine] returned an antiviral activity in assay [2] of 49.8%. In assay [1], the “inhibition of reverse transcriptase activities (in words)” value is “not inhibited”.
